The target in test [1] is T1, Human CB1 receptor (Homo sapiens, UniProt P21554).
T1 construct: purchased Receptor Biology
In words: hCB1 receptor binding (3H-CP55,940 displacement). The note with it: hCB1 membranes, Ki=IC50/(1+[rad]/Kd). The protocol:
The total and non-specific binding are determined in the absence and presence of 0.2 μM of HU210 respectively. The plates are vortexed and incubated for 60 minutes at room temperature, filtered through Unifilters GF/B (presoaked in 0.1% polyethyleneimine) with the Tomtec or Packard harvester using 3 mL of wash buffer (50 mM Tris, 5 mM MgCl2, 0.5 mg BSA pH 7.0). The filters are dried for 1 hour at 55° C. The radioactivity (cpm) is counted in a TopCount (Packard) after adding 65 μl/well of MS-20 scintillation liquid.
Based on the above assays, the dissociation constant (Ki) for a particular compound of the invention towards a particular receptor is determined using the following equation:
[rad] is a standard or reference radioactive ligand concentration at that moment; and
Kd is the dissociation constant of the radioactive ligand towards the particular receptor.

Test [2] has as its target T1, Human CB1 receptor. Description: hCB1 GTPγS binding. It is filed as biochemical. The conditions noted are these: hCB1 membranes, GTPg35S binding; for Emax: maximal stimulation with 10 μM Win 55,212-2. The protocol:
Human CB1 receptor from Receptor Biology (hCB1) or human CB2 receptor membranes (BioSignal) are thawed at 37° C., passed 3 times through a 25-gauge blunt-end needle and diluted in the GTPγS binding buffer (50 mM Hepes, 20 mM NaOH, 100 mM NaCl, 1 mM EDTA, 5 mM MgCl2, pH 7.4, 0.1% BSA). […] The basal and maximal stimulated binding is determined in absence and presence of 1 μM (hCB2) or 10 μM (hCB1) Win 55,212-2 respectively. The membranes are pre-incubated for 5 minutes with 56.25 μM (hCB2) or 112.5 μM (hCB1) GDP prior to distribution in plates (15 μM (hCB2) or 30 μM (hCB1) GDP final). The plates are vortexed and incubated for 60 minutes at room temperature, filtered on Unifilters GF/B (presoaked in water) with the Tomtec or Packard harvester using 3 ml of wash buffer (50 mM Tris, 5 mM MgCl2, 50 mM NaCl, pH 7.0). The filters are dried for 1 hour at 55° C. The radioactivity (cpm) is counted in a TopCount (Packard) after adding 65 μl/well of MS-20 scintillation liquid. Antagonist reversal studies are done in the same way except that (a) an agonist dose-response curve is done in the presence of a constant concentration of antagonist, or (b) an antagonist dose-response curve is done in the presence of a constant concentration of agonist.
(In general: GTPγS is a poorly hydrolysed GTP analogue; its binding reports G protein activation.)

T1 sequence (P21554 whole entry): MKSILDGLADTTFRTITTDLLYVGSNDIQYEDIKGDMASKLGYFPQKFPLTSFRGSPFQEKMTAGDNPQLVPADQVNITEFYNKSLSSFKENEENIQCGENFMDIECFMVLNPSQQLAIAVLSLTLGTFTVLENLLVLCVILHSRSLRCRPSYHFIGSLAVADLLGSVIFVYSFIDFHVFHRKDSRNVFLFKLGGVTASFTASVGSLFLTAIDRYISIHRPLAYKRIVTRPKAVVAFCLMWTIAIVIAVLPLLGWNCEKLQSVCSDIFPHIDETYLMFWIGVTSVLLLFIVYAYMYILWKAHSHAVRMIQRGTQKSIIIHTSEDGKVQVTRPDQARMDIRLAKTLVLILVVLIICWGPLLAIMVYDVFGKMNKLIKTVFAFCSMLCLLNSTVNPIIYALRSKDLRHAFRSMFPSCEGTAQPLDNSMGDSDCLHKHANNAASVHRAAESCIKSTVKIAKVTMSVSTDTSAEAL

As usually defined, the Ki is a measure of affinity in units of concentration, obtained from inhibition or displacement. Read a low Ki as a stronger hold on the target. The term EC50 denotes the concentration that produces a half-maximal response. Low readings indicate higher potency in that assay, high ones lower potency in that assay. The Emax is the maximal effect, on the per cent scale that the assay sets. As to `O=C(NCC1CCC1)c1cc(Cl)ccc1NC(=O)c1cccc2ccccc12` [Example 17, N-[4-Chloro-2-[[(cyclobutylmethyl)amino]carbonyl]phenyl]-1-naphthalenecarboxamide], the affinity in test [1] corresponds to a Ki of 7.3 nM. In test [2], this compound showed an EC50 of 41 nM and an Emax of 95%.

The compound `O=C(NC1CCOCC1)c1cc(Cl)ccc1NC(=O)c1cccc2ccccc12` [Example 30, N-[4-Chloro-2-[[(tetrahydro-2H-pyran-4-yl)amino]carbonyl]phenyl]-1-naphthalenecarboxamide] had a Ki in test [1] of 71 nM. Further, in test [2], the EC50 amounted to 304 nM and the Emax was 109%.

As to `O=C(NCC1CCCCC1)c1c(O)cccc1NC(=O)c1cccc2ccccc12` [Example 49, N-[2-[[(Cyclohexylmethyl)amino]carbonyl]-3-hydroxyphenyl]-1-naphthalenecarboxamide], the Emax in test [2] came to 109%.
